These results are taken from US9580411B2, “Substituted sulfonamide compounds” (Hoffmann-La Roche Inc., priority 2012, dated 2017).

In one test the target is T1, hTRPA1 (Homo sapiens (Human), UniProt O75762). The test is described as follows: IC50 determination on human TRPA1 channel, Hamamatsu FDSS calcium fluorescence, CHO cells. The following applies: CHO cells expressing human TRPA1; block of cinnamaldehyde induced calcium influx; Hill coefficient fixed to 1.5; read-out: hTRPA1 AUC IC50. The format is cell-based. The procedure: IC50s (effective concentration) of compounds on the human TRPA1 channel were determined using a Hamamatsu FDSS fluorescence plate reader. CHO cells expressing human TRPA1 were plated into 384-well plates, incubated overnight at 37° C., and loaded with BD calcium indicator dye for 1 hr at 37° C. followed by 15 minutes at room temperature. The assay buffer was Hank's Balanced Salt Solution (HBSS) containing 20 mM HEPES (pH readjusted to 7.4) along with 0.02% BSA.
T1 sequence (O75762 whole entry): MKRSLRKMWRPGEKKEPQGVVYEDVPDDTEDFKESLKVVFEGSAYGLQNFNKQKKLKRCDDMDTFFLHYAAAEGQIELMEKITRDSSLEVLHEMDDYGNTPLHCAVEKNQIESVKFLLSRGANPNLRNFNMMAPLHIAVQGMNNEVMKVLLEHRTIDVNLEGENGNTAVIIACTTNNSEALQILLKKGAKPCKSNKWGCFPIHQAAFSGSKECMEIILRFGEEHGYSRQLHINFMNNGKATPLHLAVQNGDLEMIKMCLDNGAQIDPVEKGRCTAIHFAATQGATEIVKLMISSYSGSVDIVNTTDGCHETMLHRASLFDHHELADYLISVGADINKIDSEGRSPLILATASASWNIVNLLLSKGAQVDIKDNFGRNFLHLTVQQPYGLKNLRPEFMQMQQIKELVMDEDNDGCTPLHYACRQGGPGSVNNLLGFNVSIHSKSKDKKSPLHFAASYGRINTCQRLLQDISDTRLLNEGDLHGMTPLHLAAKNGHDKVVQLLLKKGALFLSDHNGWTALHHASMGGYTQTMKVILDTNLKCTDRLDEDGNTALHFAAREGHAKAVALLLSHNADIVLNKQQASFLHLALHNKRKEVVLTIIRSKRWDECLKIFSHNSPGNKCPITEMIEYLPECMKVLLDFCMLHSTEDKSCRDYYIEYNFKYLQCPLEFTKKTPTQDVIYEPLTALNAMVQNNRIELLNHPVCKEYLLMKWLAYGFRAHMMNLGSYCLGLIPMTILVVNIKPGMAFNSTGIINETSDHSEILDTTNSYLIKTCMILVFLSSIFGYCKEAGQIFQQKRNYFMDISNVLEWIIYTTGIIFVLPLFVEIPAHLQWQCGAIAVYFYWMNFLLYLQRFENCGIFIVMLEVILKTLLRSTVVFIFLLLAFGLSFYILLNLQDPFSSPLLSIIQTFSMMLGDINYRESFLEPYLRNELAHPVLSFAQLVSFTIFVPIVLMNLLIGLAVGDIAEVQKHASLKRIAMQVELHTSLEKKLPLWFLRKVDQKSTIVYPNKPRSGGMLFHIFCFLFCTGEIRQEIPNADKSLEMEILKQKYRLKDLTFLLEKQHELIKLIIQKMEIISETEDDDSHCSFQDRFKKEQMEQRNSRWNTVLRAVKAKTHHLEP
Following dye load and plate cool down, compounds were added to the cells using the FDSS while monitoring fluorescence to determine whether any of the test compounds have TRPA1 agonist activity. Plates were then incubated with compound for 20 minutes at room temperature prior to adding agonist. Following this incubation, […] cinnamaldehyde was added to all wells of the plate and block of this cinnamaldehyde induced calcium influx was measured.
Fixing the Hill coefficient will generally reduce variability of the IC50 determination. The IC50s were examined by eye to make sure the MIN and MAX points were set correctly prior to validation of the results.
A word on the IC50: it is the concentration at which inhibition is half-maximal. As to `CC(C)N(CC(=O)NCc1cccc(-c2cnc(N3CCC[C@H]3C)nc2)c1)S(=O)(=O)c1ccc(F)cc1` (single isomer, unassigned) [79-(R)], the IC50 is 55 nM.

On to `CC(C)N(CC(=O)NCc1cccc(-c2cnc(N3CCC[C@@H]3C)nc2)c1)S(=O)(=O)c1ccc(F)cc1` (single isomer, unassigned) [79-(S)], for which the IC50 stood at 38 nM.

Take `CC(C)N(CC(=O)NCc1cccc(N2CCCC2)c1)S(=O)(=O)c1ccc(F)cc1` [Example 77, 2-(4-fluoro-N-isopropylphenylsulfonamido)-N-(3-(pyrrolidin-1-yl)benzyl)acetamide]: the IC50 came out at 883 nM.

Consider `CC(C)N(CC(=O)NCc1cccc(C2CC2)c1)S(=O)(=O)c1ccc(F)cc1` [Example 78, N-(3-cyclopropylbenzyl)-2-(4-fluoro-N-isopropylphenylsulfonamido)acetamide], for which the IC50 is 1000 nM.

Take `CC(C)N(CC(=O)NCc1cc(N2CCC(C(F)(F)F)CC2)ncn1)S(=O)(=O)c1ccc(F)cc1` [Example 80, 2-(4-Fluoro-N-isopropylphenylsulfonamido)-N-((6-(4-(trifluoromethyl)piperidin-1-yl)pyrimidin-4-yl)methyl)acetamide]: the IC50 turned out to be 251 nM.

Turning to `CC(C)N(CC(=O)NCc1cc(N2CCC(F)(F)CC2)ncn1)S(=O)(=O)c1ccc(F)cc1` [Example 81, N-((6-(4,4-Difluoropiperidin-1-yl)pyrimidin-4-yl)methyl)-2-(4-fluoro-N-isopropylphenylsulfonamido)acetamide], the IC50 stood at 3000 nM.

For the compound `CC(C)N(CC(=O)NCc1cccc(-c2ccc(C(F)(F)F)cc2)c1)S(=O)(=O)c1ccn(C)n1` [Example 82, 2-(N-Isopropyl-1-methyl-1H-pyrazole-3-sulfonamido)-N-((4′-(trifluoromethyl)biphenyl-3-yl)methyl)acetamide], the IC50 was found to be 2400 nM.

As for `[2H]C([2H])(C(=O)NCc1cc(-c2ccc(C(F)(F)F)nc2)ncn1)N(C(C)C)S(=O)(=O)c1ccc(F)cc1` [Example 83, 2,2-Dideuterio-2-(4-fluoro-N-isopropylphenylsulfonamido)-N-((6-(6-(trifluoromethyl)pyridin-3-yl)pyrimidin-4-yl)methyl)acetamide], the IC50 was found to be 58 nM.

Take `CC(C)N(C1(C(=O)NCc2cc(-c3ccc(C(F)(F)F)nc3)ncn2)CC1)S(=O)(=O)c1ccc(F)cc1` [Example 84, 1-(4-Fluoro-N-isopropylphenylsulfonamido)-N-((6-(6-(trifluoromethyl)pyridin-3-yl)pyrimidin-4-yl)methyl)cyclopropanecarboxamide]: the IC50 was determined as 29 nM.

For the compound `O=C(CN(c1ccc(F)cc1)S(=O)(=O)c1ccc(F)cc1)NCc1cc(-c2ccc(C(F)(F)F)nc2)ncn1` [Example 86, 2-(4-fluoro-N-(4-fluorophenyl)phenylsulfonamido)-N-((6-(6-(trifluoromethyl)pyridin-3-yl)pyrimidin-4-yl)methyl)acetamide], the IC50 was found to be 9 nM.

Another test deals with T1, hTRPA1. The test is described as follows: Dose response calcium flux assay (FLIPR), ChanTest hTRPA1-CHO stably transfected cell line. The format is cell-based. The following applies: CHO-K1 Tet-On human TRPA1 cells, cinnamaldehyde agonist (final 100 uM). The method in brief:
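Doxycycline-induced CHO-K1 Tet-On hTRPA1 cells, assayed 24 h post induction, Cal-3 dye loaded. Compounds (top 20 μM 3-fold or 30 μM 2-fold, 11 steps) preincubated 30 min at room temperature, then 100 μM cinnamaldehyde (final) added. FLIPR peak fluorescence increase measured against per-well baseline.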
Regarding `O=C(CN(C1COC1)S(=O)(=O)c1ccc(F)cc1)NCc1cccc(-c2ccc(C(F)(F)F)cc2)c1` [Example 60, 2-[(4-Fluoro-benzenesulfonyl)-oxetan-3-yl-amino]-N-(4′-trifluoromethyl-biphenyl-3-ylmethyl)-acetamide], the IC50 came to 200 nM.

With `CC(C)N(CC(=O)NCc1cc(-c2ccc(C(F)(F)F)nc2)ncn1)S(=O)(=O)c1ccc(F)cc1` [Example 61, 2-[(4-Fluoro-benzenesulfonyl)-isopropyl-amino]-N-[6-(6-trifluoromethyl-pyridin-3-yl)-pyrimidin-4-ylmethyl]-acetamide], the IC50 worked out at 140 nM.

Regarding `CC(C)N(CC(=O)NCc1cc(F)cc(-c2ccc(C(F)(F)F)nc2)c1)S(=O)(=O)c1ccc(F)cc1` [Example 63, 2-[(4-Fluoro-benzenesulfonyl)-isopropyl-amino]-N-[3-fluoro-5-(6-trifluoromethyl-pyridin-3-yl)-benzyl]-acetamide], the IC50 was determined as 38 nM.

As to `CC(C)N(CC(=O)NCc1cc(-c2ccc(C(F)(F)F)cc2)ncn1)S(=O)(=O)c1ccc(Cl)nc1` [Example 64, 2-[(6-Chloro-pyridine-3-sulfonyl)-isopropyl-amino]-N-[6-(4-trifluoromethyl-phenyl)-pyrimidin-4-ylmethyl]-acetamide], the IC50 is 83 nM.

Take `CC(C)N(CC(=O)NCc1cc(-c2ccc(C(F)(F)F)cc2)ncn1)S(=O)(=O)c1ccccc1C#N` [Example 65, 2-[(2-Cyano-benzenesulfonyl)-isopropyl-amino]-N-[6-(4-trifluoromethyl-phenyl)-pyrimidin-4-ylmethyl]-acetamide]: the IC50 is 3860 nM.

For `CC(C)N(CC(=O)NCc1cccc(-c2ccc(C(F)(F)F)nn2)c1)S(=O)(=O)c1ccc(F)cc1` [Example 66, 2-[(4-Fluoro-benzenesulfonyl)-isopropyl-amino]-N-[3-(6-trifluoromethyl-pyridazin-3-yl)-benzyl]-acetamide], the IC50 stood at 170 nM.

For `CC(C)N(CC(=O)NCc1cc(-c2ccc(C(F)(F)F)cc2)ncn1)S(=O)(=O)c1cnccn1` [Example 67, 2-[Isopropyl-(pyrazine-2-sulfonyl)-amino]-N-[6-(4-trifluoromethyl-phenyl)-pyrimidin-4-ylmethyl]-acetamide], the IC50 amounted to 380 nM.

On to `CC(C)N(CC(=O)NCc1cccc(-c2cnc(C(F)(F)F)nc2)c1)S(=O)(=O)c1ccc(F)cc1` [Example 68, 2-[(4-Fluoro-benzenesulfonyl)-isopropyl-amino]-N-[3-(2-trifluoromethyl-pyrimidin-5-yl)-benzyl]-acetamide], for which the IC50 is 47 nM.

On to `CC(C)N(CC(=O)NCc1cc(-c2ccc(C(F)(F)F)cc2)ncn1)S(=O)(=O)c1ccc(F)c(F)c1` [Example 69, 2-[(3,4-Difluoro-benzenesulfonyl)-isopropyl-amino]-N-[6-(4-trifluoromethyl-phenyl)-pyrimidin-4-ylmethyl]-acetamide], for which the IC50 stood at 19 nM.

On to `CC(C)N(CC(=O)NCc1ccc(F)c(-c2cnc(C(F)(F)F)nc2)c1)S(=O)(=O)c1ccc(F)cc1` [Example 70, 2-[(4-Fluoro-benzenesulfonyl)-isopropyl-amino]-N-[4-fluoro-3-(2-trifluoromethyl-pyrimidin-5-yl)-benzyl]-acetamide], for which the IC50 was determined as 48 nM.

For the compound `CC(C)N(CC(=O)NCc1cccc(-c2cnc(C(F)(F)F)cn2)c1)S(=O)(=O)c1ccc(F)cc1` [Example 71, 2-[(4-Fluoro-benzenesulfonyl)-isopropyl-amino]-N-[3-(5-trifluoromethyl-pyrazin-2-yl)-benzyl]-acetamide], the IC50 is 79 nM.

As for `CC(C)N(CC(=O)NCc1cccc(-c2cnc(C(F)(F)F)cn2)c1)S(=O)(=O)c1ccc(Cl)nc1` [Example 72, 2-[(6-Chloro-pyridine-3-sulfonyl)-isopropyl-amino]-N-[3-(5-trifluoromethyl-pyrazin-2-yl)-benzyl]-acetamide], the IC50 is 233 nM.

With `CC(C)N(CC(=O)NCc1cccc(-c2ccc(C(F)(F)F)nn2)c1)S(=O)(=O)c1ccc(Cl)nc1` [Example 73, 2-[(6-Chloro-pyridine-3-sulfonyl)-isopropyl-amino]-N-[3-(6-trifluoromethyl-pyridazin-3-yl)-benzyl]-acetamide], the IC50 is 682 nM.

`CC(C)N(CC(=O)NCc1ccnc(-c2cnc(C(F)(F)F)nc2)c1)S(=O)(=O)c1ccc(F)cc1` [Example 74, 2-[(4-Fluoro-benzenesulfonyl)-isopropyl-amino]-N-[2-(2-trifluoromethyl-pyrimidin-5-yl)-pyridin-4-ylmethyl]-acetamide]: the IC50 turned out to be 298 nM.

As for `CC(C)N(CC(=O)NCc1cc(-c2ccc(C(F)(F)F)cc2)ncn1)S(=O)(=O)c1ccc(Cl)s1` [Example 75, 2-[(5-Chloro-thiophene-2-sulfonyl)-isopropyl-amino]-N-[6-(4-trifluoromethyl-phenyl)-pyrimidin-4-ylmethyl]-acetamide], the IC50 was 25 nM.

As to `CC(C)N(CC(=O)NCc1cc(-c2ccc(C(F)(F)F)nc2)ncn1)S(=O)(=O)c1ccc(Cl)s1` [Example 76, 2-[(5-Chloro-thiophene-2-sulfonyl)-isopropyl-amino]-N-[6-(6-trifluoromethyl-pyridin-3-yl)-pyrimidin-4-ylmethyl]-acetamide], the IC50 amounted to 20 nM.
